Structures can show the parent of a compound that is named as a salt. Where two headings read alike, the source gives them in different places.
Assays:
[1] = tested on: Parkinsonism; details: in vivo; cited from earlier work
[2] = tested on: prolactin; details: cited from earlier work
[3] = tested on: 6-hydroxydopamine-lesioned rats; assay: Turning behavior in 6-hydroxydopamine-lesioned (nigro-neostriatal-lesioned) rats; format: in vivo, rat; details: for Latency of Effect: 1 mg./kg. (Table I); for responders at 1 mg/kg: Rattus norvegicus, read-out: % of Rats Exhibiting Turning Behavior
Method: In this test, nigro-neostriatal-lesioned rats are employed, which are prepared by the procedure of Ungerstedt and Arbuthnott, Brain Res, 24, 485 (1970). A compound having dopamine agonist activity causes the rats to turn in circles contralateral to the side of the lesion. After a latency period, which varies from compound to compound, the number of turns is counted over a 15-minute period.
The compounds were dissolved in water and the aqueous solution injected into the rat by the intraperitoneal route.

[4] = tested on: prolactin; assay: Inhibition of serum prolactin in reserpine-treated male rats; format: in vivo, Sprague-Dawley rat; parameters: Serum Prolactin Level: unit not given here; details: for Serum Prolactin Level: reserpine-pretreated, controls: Exp. 1 30.4 ± 3.4, Exp. 2 55.2 ± 4.1, Exp. 3 42.3 ± 7.3; for inhibition in vivo at 0.05 mg/kg: Rattus norvegicus, read-out: Percent Inhibition of Serum Prolactin
Method: Adult male rats of the Sprague-Dawley strain weighing about 200 g. were housed in an air-conditioned room with controlled lighting (lights on 6 a.m.-8 p.m.) and fed lab chow and water ad libitum. Each rat received an intraperitoneal injection of 2.0 mg. of reserpine in aqueous suspension 18 hours before administration of the ergoline derivative. The purpose of the reserpine was to keep prolactin levels uniformly elevated. The compounds under test were dissolved in 10 percent ethanol at a concentration of 10 mcg/ml. and were injected intraperitoneally at a standard dose of 50 mcg/kg. Each compound was administered to a group of 10 rats, and a control group of 10 intact males received an equivalent amount of 10 percent ethanol. One hour after treatment all rats were killed by decapitation, and 150 μl aliquots of serum were assayed for prolactin. The results were evaluated statistically using Student's "t" test to calculate the level of significance, "p", of the changes in prolactin level.

[5] = tested on: serotonin; assay: Serotonin agonism
[6] = tested on: dopamine receptors; details: cited from earlier work
[7] = 50 mcg/kg IP, 1 hour after treatment

Row | SMILES | Duration of Effect ([3]; IP, 1 mg./kg.) | Latency of Effect ([3]; IP) | responders at 1 mg/kg ([3]; ip) | inhibition in vivo at 0.05 mg/kg ([4]; ip, 1 h) | further results
1 | CC(C)C[C@H]1C(=O)N2CCC[C@H]2[C@]2(O)O[C@](NC(=O)[C@@H]3C=C4c5cccc6[nH]c(Br)c(c56)C[C@H]4N(C)C3)(C(C)C)C(=O)N12 [2-bromo-α-ergokryptine] |  |  |  |  | usefulness in the treatment of Parkinsonism (in words) [1]: useful in the treatment of Parkinsonism; activity as prolactin inhibitors (in words) [2]: activity as prolactin inhibitors
2 | CCCN1C[C@H](CSC)C[C@@H]2c3cccc4[nH]c(Br)c(c34)C[C@H]21 [D-2-bromo-6-n-propyl-8β-methylmercaptomethylergoline mesylate] | 1 h | 5 min | 100% | 89% | Serum Prolactin Level [4, 7]: 4.6 ± 0.4
3 | CCN1C[C@H](CSC)C[C@@H]2c3cccc4[nH]cc(c34)C[C@H]21 [D-6-ethyl-8β-methylmercaptomethylergoline mesylate] | ≥ 2 h | 9 min | 100% | 91% | Serum Prolactin Level [4, 7]: 3.9 ± 0.4
4 | CN1CC(CC#N)C[C@@H]2c3cccc4[nH]cc(c34)C[C@H]21 (stereo partly drawn) [D-6-methyl-8-cyanomethylergoline] |  |  |  |  | activity as prolactin inhibitors (in words) [2]: activity as prolactin inhibitors
5 | CSC[C@@H]1C[C@@H]2c3cccc4[nH]cc(c34)C[C@H]2N(C)C1 [D-6-methyl-8β-methylmercaptomethylergoline mesylate, reference compound] | ~ 2 hours | 30 to 45 min | 50% | 58% | 
6 | CCCN1C[C@H](CSC)C[C@@H]2c3cccc4[nH]cc(c34)C[C@H]21 [D-6-n-Propyl-8β-methylmercaptomethylergoline] |  |  |  |  | serotonin agonist or antagonist (in words) [5]: serotonin agonists rather than serotonin antagonists
7 | CCCN1CC(CSC)=C[C@@H]2c3cccc4[nH]cc(c34)C[C@H]21 [D-6-n-propyl-8-methylmercaptomethyl-8-ergolene maleate] | 1 h | 4 min | 100% | 91% | Serum Prolactin Level [4, 7]: 3.9 ± 0.2
8 | CCCN1C[C@H](COC)C[C@@H]2c3cccc4[nH]cc(c34)C[C@H]21 [D-6-n-propyl-8β-methoxymethylergoline methanesulfonate] | ≥ 2 h | 6 min | 100% | 96% | Serum Prolactin Level [4, 7]: 2.4 ± 0.2
9 | CCCN1C[C@H](CSC)C=C2c3cccc4[nH]cc(c34)C[C@H]21 [D-6-n-propyl-8β-methylmercaptomethyl-9-ergolene] | ≥ 2 h | 4 min | 100% | 81% | 
10 | CCCN1C[C@H](CSC)C[C@@H]2c3cccc4[nH]cc(c34)C[C@H]21 [D-6-n-propyl-8β-methylmercaptomethylergoline methanesulfonate] |  |  |  |  | responders at 1 mg/kg ([3]; IP, 1 mg./kg., aqueous solution): 100%; times more potent in the turning behavior test than the corresponding D-6-methyl derivative ([3]; from dose response curves): about 30 times; inhibition in vivo at 0.05 mg/kg ([4]; 50 mcg/kg IP, 1 hour after treatment, versus control of same experiment): 95%; times more potent as a prolactin inhibitor than the corresponding D-6-methyl compound ([4]; from dose response curves): about 100 times
11 | CCCN1C[C@H](C[S+](C)[O-])C[C@@H]2c3cccc4[nH]cc(c34)C[C@H]21 (stereo partly drawn) [D-6-n-propyl-8β-methylsulfinylmethylergoline mesylate] | 1 h | 7 min | 100% | 92% | 
12 | CC(C)[C@H]1C(=O)N2CCC[C@H]2[C@]2(O)O[C@](NC(=O)[C@@H]3C[C@@H]4c5cccc6[nH]cc(c56)C[C@H]4N(C)C3)(C(C)C)C(=O)N12 [dihydroergocornine] |  |  |  |  | activity as prolactin inhibitors (in words) [2]: activity as prolactin inhibitors
13 | CC(C)[C@H]1C(=O)N2CCC[C@H]2[C@]2(O)O[C@](NC(=O)[C@@H]3C=C4c5cccc6[nH]cc(c56)C[C@H]4N(C)C3)(C(C)C)C(=O)N12 [ergocornine] |  |  |  |  | activity as prolactin inhibitors (in words) [2]: activity as prolactin inhibitors; dopamine receptor stimulation (in words) [6]: stimulate dopamine receptors
14 | CN1C[C@H](CC#N)C[C@@H]2c3cccc4[nH]c(Cl)c(c34)C[C@H]21 [lergotrile] |  |  |  |  | usefulness in the treatment of Parkinsonism (in words) [1]: useful in the treatment of Parkinsonism

Reference: patent publication US4166182A, “6-N-Propyl-8-methoxymethyl or methylmercaptomethylergolines and related compounds” (priority 1978, dated 1979)
